Experimental data: patent publication US20120122966A1, “USE OF ORGANIC DYES AS ANALGESIC AGENTS” (priority 2009, published 2012)

Key:
Type in all cases: in vivo, human
[1] = system: bladder cancer, metastases in pelvic bones, pain; assay: Example 3: patient L., bladder cancer with pelvic bone metastases, treated with malachite green oxalate
Procedure: Patient one. Diagnosis: bladder cancer. Metastases in pelvic bones. Three years ago bladderectomy was performed for cancer. Complaints of pain, bloody urine, frequent urination and pelvic bone pains. In CT, a 2×2×2 cm tumor-like mass in the projection of the mouth of the right ureter and a 1.5×1.1×0.9 cm in the projection of the mouth of the left ureter. In the wing of the left illium two tumor-like masses with irregular contours, 1.5 to 2.5 cm in diameter. Medium severity condition, skin integument pallor, blood in urine. […] Began treatment with the preparation—20 drops of a 1% solution of malachite green oxalate in half a glass of water by mouth and in the form of microclysters. […] The course had lasted for 4 months. […] Biphosphonates were prescribed for replacement therapy.

[2] = system: metastasizing melanoma of the right forearm, metastases to the liver, pain; assay: Example 4: patient D., metastasizing melanoma, treated with malachite green oxalate
Procedure: Patient three. Diagnosis: metastasizing melanoma of the right forearm. Metastases to the liver and right eye. Three years ago melanoma resection was performed. A year and a half later gripes appeared in the right eye. Eye enucleation for metastasis was performed. In the examination of the internal organs, a 4×5×4 cm metastasis in the liver was detected. At the same time, relapse in the surgery area appeared. Complaints of severe pain in the liver and pain in the relapse area. Objectively: medium severity condition, skin integument pallor, a purple tumor-like mass on the right forearm with a 4×5×5 cm pronounced edema. […] Began treatment with the preparation according to the following regimen: 5 ml of a 0.000001% sterile solution of malachite green oxalate was injected under the tumor base. Later, a 2% ointment with the same preparation was applied to the skin surface. Two times a day, 500 mg of malachite green oxalate diluted in 500 ml of saline was administered intravenously. Also, 5 g of malachite green oxalate was diluted in water and administered by mouth, as well as in the form of microclysters. […] The course had continued for 3 months.

migraine = assay: Example 8: patient O., migraine; conditions: third day; 2 g in 100 ml of water on an empty stomach two times a day
Procedure: Patient five.
Complaints of periodic excruciating pain in the right temporal area. Diagnosis: migraine. Prescribed treatment: malachite green oxalate preparation, 2 g dissolved in 100 ml of water on an empty stomach two times a day.

[3] = system: poorly differentiated pulmonary adenocarcinoma, MTS to the brain and skeleton bones, pain syndrome; assay: Example 1: patient V., pulmonary adenocarcinoma with MTS, pain syndrome, treated with gentian violet
Procedure: Patient six. Diagnosis: poorly differentiated pulmonary adenocarcinoma. MTS [expansion not given; possibly metastases] to the brain and skeleton bones. Cachexia. Pain syndrome. Relatives state that over the last two months the patient has been receiving 5.0 ml of heroin intravenously three times a day. Otherwise, they note resumption of pronounced excruciating pain. In CT, several tumor-like masses in the mediastinum and left lung, average size 3.9×3.6×3.2 cm. Grave condition, dyspnea, cyanosis, adynamia, and sensations of pain, getting stronger when coughing. Treatment was prescribed that included the use of medicinal preparations with antineoplastic action—an organic dye, a 1% gentian violet solution. The first course of treatment using the preparation—15 drops of a 1% solution in a glass of water three times a day by mouth, additionally a microclyster—10 drops of a 1% solution in 30 ml of water at lunch, and q.h.s. a 1% suppository with the preparation. […] On the third week of treatment with the preparation the patient's condition improved. […] The lung tumor size dropped to 2.1×2.2×2.2 cm. After six months of treatment the tumor size dropped to 0.3×0.4×1.0 cm. […] Blood tests against the background of treatment have normalized.

[4] = system: pancreas head blastoma, pain; assay: Example 5: patient Z., pancreas head blastoma with neck lymph node metastases, pain, treated with gentian violet
From the text: Patient two. […] Started chemotherapy. After three weeks the condition began rapidly deteriorating, accompanied by extreme weight loss—from 95 kg to 72 kg. Pain became considerably more severe. Stomach pain occurs before having a meal, i.e. after having a meal the pain is lower. At the same time stool was lightly yellow—very light color. The patient had been taking an analgesic—ketanol—infrequently, but lately has been taking it two times a day. […] Immediately after the end of the first course of phthorafurum the patient began taking gentian violet preparation, 3 mg per 50 kg of weight two times a day.

osteoarthrosis pain = assay: Example 7: patient T., osteoarthrosis with joint deformation, permanent pain
Procedure: Patient four. Complaints of not being able to raise their right arm above the shoulder level. In CT, effects of osteoarthrosis with joint deformation were noticed. Taking analgesic preparations turned out to be ineffective. Pain became permanent. Gentian violet preparation was prescribed, 0.0004 mg/kg of weight once a day.

[5] = system: renal cell carcinoma, lung and bone metastases, excruciating bone pain; assay: Example 2: patient T., renal cell carcinoma with lung and bone metastases, bone pain, treated with crystal violet
Procedure: Patient four. Three years ago, the left kidney was removed, and preventive chemotherapy was administered for renal cell carcinoma. In a CT examination, a 2.5×2.4×2.3 cm tumor-like mass in the right kidney projection, three round tumor-like masses from 2.6 to 2.3 cm in diameter in the left lung, and numerous bone metastases. Grave condition, dyspnea, cyanosis, […]. Complaints of excruciating bone pain. […] Treatment prescribed, including the use of an antitumor medicinal preparation. The preparation, crystal violet, was administered by mouth as a potion-16 drops of a 1% solution three times a day, and as microclysters. After 7 days of treatment, dyspnea abated, and the pain syndrome disappeared. Blood tests against the background of treatment have normalized over 3 weeks. Then, the course was repeated using crystal violet preparation which was administered into rectum in the form of 1% suppositories and by inhaling, for 12 months with half-month long breaks. During the therapy the right kidney tumor and lung metastases disappeared. No pain. Weight restored.

malachite green oxalate
bladder tumor and pelvic metastases ([1]; complete course of 6 months): disappeared
return of pain ([1]; complete course of 6 months): did not return
weight ([1]; complete course of 6 months): restored
blood tests ([1]; fourth week): normalized
decrease of pelvic bone metastases ([1]; over the 4-month course): 1.5 cm
use of narcotic analgesics by the patient ([1]; previously 5.0 ml of morphine three times a day): declined taking narcotic analgesics
pain in the area of metastases ([1]; sixth day, 20 drops of 1% solution by mouth and microclysters): got duller
pain in the area of metastases ([1]; tenth day): disappeared completely
blood tests ([2]; 4th week): normalized
return of pain ([2]; complete course of 6 months): did not return
weight ([2]; complete course of 6 months): restored
decrease of liver metastasis ([2]; during the 3-month course, baseline 4×5×4 cm): 1.5 cm
use of narcotics by the patient ([2]; fifth day after the start of treatment): declined taking narcotics
pain in the area of metastases ([2]; sixth day, injection under tumor, 2% ointment, intravenous, by mouth, microclysters): became duller
use of narcotic analgesics by the patient ([2]; stated after the tenth day, previously 3.0 ml of morphine four times a day): declined taking narcotic analgesics
pain in the area of metastases ([2]; tenth day): disappeared completely
pain (migraine): abated and has not recurred

CN(C)c1ccc(C(=C2C=CC(=[N+](C)C)C=C2)c2ccc(N(C)C)cc2)cc1 [gentian violet]
brain metastases ([3]; after six months of treatment): No brain metastases are observed
dyspnea ([3]; after six months of treatment): abated
pain syndrome ([3]; after six months of treatment): practically absent
blood tests ([3]; against the background of treatment): normalized
pain syndrome after the sessions ([3]; first week, for several hours after sessions, 1% solution by mouth, microclyster, suppository): substantial improvement of the pain syndrome
patient's condition ([3]; third week of treatment): improved
MTS in the brain in CT ([3]; three months after start of treatment): no MTS in the brain were observed
pain ([4]; after 3 days, 3 mg per 50 kg of weight two times a day): abated significantly
return of pain ([4]; hereinafter): has not returned
pain ([4]; later than 3 days (then)): stopped completely
pain (osteoarthrosis pain; after a week): disappeared completely
pain (osteoarthrosis pain; after three days, 0.0004 mg/kg of weight once a day): abated

CN(C)c1ccc(C(=C2C=CC(=[N+](C)C)C=C2)c2ccc(N(C)C)cc2)cc1 [crystal violet]
pain syndrome ([5]; after 7 days of treatment): disappeared
dyspnea ([5]; after 7 days, 16 drops of 1% solution by mouth three times a day and microclysters): abated
pain ([5]; after the 12-month course): No pain
weight ([5]; after the 12-month course): restored
right kidney tumor and lung metastases ([5]; during therapy, 1% suppositories and inhaling for 12 months with breaks): disappeared
blood tests ([5]; over 3 weeks): normalized
